Laboratory results published in ChEMBL document CHEMBL4507280 (2021).

Legend:
[1] = target: Inhibitor of nuclear factor kappa-B kinase subunit epsilon (Homo sapiens) (UniProt Q14164); settings: Compound concentration 1000.0 nM
[2] = target: Myosin-IIIb (Homo sapiens) (UniProt Q8WXR4); settings: Compound concentration 1000.0 nM
[3] = target: Serine/threonine-protein kinase TAO3 (Homo sapiens) (UniProt Q9H2K8); settings: Compound concentration 1000.0 nM
[4] = target: Serine/threonine-protein kinase VRK2 (Homo sapiens) (UniProt Q86Y07); settings: Compound concentration 1000.0 nM
[5] = target: Insulin-like growth factor 1 receptor (Homo sapiens) (UniProt P08069); settings: Compound concentration 1000.0 nM
Rattus norvegicus = organism: Rattus norvegicus; settings: Compound concentration 10.0 uM
[6] = target: Activin receptor type-1-like (Homo sapiens) (UniProt P37023); settings: Compound concentration 1000.0 nM
[7] = target: Mitogen-activated protein kinase kinase kinase kinase 4 (Homo sapiens) (UniProt O95819); settings: Compound concentration 1000.0 nM
[8] = target: Mitogen-activated protein kinase kinase kinase 20 (Homo sapiens) (UniProt Q9NYL2); settings: Compound concentration 1000.0 nM
[9] = target: Tyrosine-protein kinase Blk (Homo sapiens) (UniProt P51451); settings: Compound concentration 1000.0 nM
[10] = target: MAP kinase-interacting serine/threonine-protein kinase 1 (Homo sapiens) (UniProt Q9BUB5); settings: Compound concentration 1000.0 nM
[11] = target: Ephrin type-B receptor 6 (Homo sapiens) (UniProt O15197); settings: Compound concentration 1000.0 nM
[12] = target: G protein-coupled receptor kinase 3 (Homo sapiens) (UniProt P35626); settings: Compound concentration 1000.0 nM
[13] = target: MAP kinase-activated protein kinase 5 (Homo sapiens) (UniProt Q8IW41); settings: Compound concentration 1000.0 nM
[14] = target: Serine/threonine-protein kinase SIK3 (Homo sapiens) (UniProt Q9Y2K2); settings: Compound concentration 1000.0 nM
[15] = target: Mitogen-activated protein kinase kinase kinase 14 (Homo sapiens) (UniProt Q99558); settings: Compound concentration 1000.0 nM
[16] = test system: Phosphatidylinositol 4,5-bisphosphate 3-kinase catalytic subunit alpha isoform (Homo sapiens), P42336 [E542K]; settings: Compound concentration 1000.0 nM
[17] = target: T1, Alpha-1B adrenergic receptor (Homo sapiens) (UniProt P35368); settings: Compound concentration 10.0 uM
T1 sequence (whole entry): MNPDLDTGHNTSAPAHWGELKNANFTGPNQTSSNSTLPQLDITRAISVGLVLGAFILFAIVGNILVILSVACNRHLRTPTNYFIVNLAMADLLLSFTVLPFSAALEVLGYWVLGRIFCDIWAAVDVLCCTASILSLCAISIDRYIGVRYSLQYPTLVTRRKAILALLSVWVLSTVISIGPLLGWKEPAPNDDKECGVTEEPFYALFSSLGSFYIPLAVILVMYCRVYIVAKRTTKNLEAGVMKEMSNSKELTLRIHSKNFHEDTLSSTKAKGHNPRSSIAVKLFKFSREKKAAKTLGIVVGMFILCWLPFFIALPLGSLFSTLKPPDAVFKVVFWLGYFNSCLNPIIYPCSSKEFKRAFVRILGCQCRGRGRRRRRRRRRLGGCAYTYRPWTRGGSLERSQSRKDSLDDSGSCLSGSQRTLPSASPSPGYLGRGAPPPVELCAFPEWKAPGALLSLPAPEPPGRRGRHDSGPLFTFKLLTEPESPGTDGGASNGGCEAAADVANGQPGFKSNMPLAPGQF

[18] = target: Serine/threonine-protein kinase D1 (Homo sapiens) (UniProt Q15139); settings: Compound concentration 1000.0 nM
[19] = target: STE20/SPS1-related proline-alanine-rich protein kinase (Homo sapiens) (UniProt Q9UEW8); settings: Compound concentration 1000.0 nM
[20] = target: Phosphatidylinositol 4-phosphate 3-kinase C2 domain-containing subunit beta (Homo sapiens) (UniProt O00750); settings: Compound concentration 1000.0 nM
[21] = test system: Tyrosine-protein kinase ABL1 (Homo sapiens), P00519 [H396P]; settings: Compound concentration 1000.0 nM
[22] = target: Serine/threonine-protein kinase MRCK alpha (Homo sapiens) (UniProt Q5VT25); settings: Compound concentration 1000.0 nM
[23] = test system: Proto-oncogene tyrosine-protein kinase receptor Ret (Homo sapiens), P07949 [V804L]; settings: Compound concentration 1000.0 nM
[24] = target: Serine/threonine-protein kinase PAK 2 (Homo sapiens) (UniProt Q13177); settings: Compound concentration 1000.0 nM
[25] = target: Vascular endothelial growth factor receptor 1 (Homo sapiens) (UniProt P17948); settings: Compound concentration 1000.0 nM
[26] = target: Serine/threonine-protein kinase D3 (Homo sapiens) (UniProt O94806); settings: Compound concentration 1000.0 nM
[27] = target: D(3) dopamine receptor (Homo sapiens) (UniProt P35462); settings: Compound concentration 10.0 uM
[28] = target: Alpha-2B adrenergic receptor (Homo sapiens) (UniProt P18089); settings: Compound concentration 10.0 uM
[29] = target: Phosphatidylinositol 4,5-bisphosphate 3-kinase catalytic subunit alpha isoform (Homo sapiens) (UniProt P42336); settings: Compound concentration 1000.0 nM
[30] = target: Membrane-associated tyrosine- and threonine-specific cdc2-inhibitory kinase (Homo sapiens) (UniProt Q99640); settings: Compound concentration 1000.0 nM
[31] = target: Serine/threonine-protein kinase RIO3 (Homo sapiens) (UniProt O14730); settings: Compound concentration 1000.0 nM
[32] = target: Myosin light chain kinase 2, skeletal/cardiac muscle (Homo sapiens) (UniProt Q9H1R3); settings: Compound concentration 1000.0 nM
[33] = target: Serine/threonine-protein kinase haspin (Homo sapiens) (UniProt Q8TF76); settings: Compound concentration 1000.0 nM
[34] = target: Casein kinase I isoform gamma-2 (Homo sapiens) (UniProt P78368); settings: Compound concentration 1000.0 nM
[35] = target: Phosphatidylinositol 4,5-bisphosphate 3-kinase catalytic subunit beta isoform (Homo sapiens) (UniProt P42338); settings: Compound concentration 1000.0 nM
[36] = target: Muscarinic acetylcholine receptor M5 (Homo sapiens) (UniProt P08912); settings: Compound concentration 10.0 uM
[37] = target: Phosphatidylinositol 3-kinase catalytic subunit type 3 (Homo sapiens) (UniProt Q8NEB9); settings: Compound concentration 1000.0 nM

Chain of Serine/threonine-protein kinase PAK 2 (Homo sapiens) (Q13177 whole entry): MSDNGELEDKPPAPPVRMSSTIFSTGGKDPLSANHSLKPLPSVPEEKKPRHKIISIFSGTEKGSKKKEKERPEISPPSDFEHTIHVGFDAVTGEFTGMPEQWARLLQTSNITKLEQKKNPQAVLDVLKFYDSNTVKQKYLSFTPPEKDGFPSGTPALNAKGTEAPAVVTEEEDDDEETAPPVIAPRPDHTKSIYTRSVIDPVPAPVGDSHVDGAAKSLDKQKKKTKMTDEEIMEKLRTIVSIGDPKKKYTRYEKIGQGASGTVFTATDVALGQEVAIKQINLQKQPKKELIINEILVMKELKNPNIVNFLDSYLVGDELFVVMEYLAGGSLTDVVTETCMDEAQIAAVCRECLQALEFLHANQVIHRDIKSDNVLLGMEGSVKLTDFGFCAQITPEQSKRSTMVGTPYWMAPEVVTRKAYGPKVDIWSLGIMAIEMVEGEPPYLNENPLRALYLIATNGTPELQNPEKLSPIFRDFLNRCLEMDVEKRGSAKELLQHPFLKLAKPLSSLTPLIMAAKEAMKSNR
Chain of Serine/threonine-protein kinase MRCK alpha (Homo sapiens) (Q5VT25 whole entry): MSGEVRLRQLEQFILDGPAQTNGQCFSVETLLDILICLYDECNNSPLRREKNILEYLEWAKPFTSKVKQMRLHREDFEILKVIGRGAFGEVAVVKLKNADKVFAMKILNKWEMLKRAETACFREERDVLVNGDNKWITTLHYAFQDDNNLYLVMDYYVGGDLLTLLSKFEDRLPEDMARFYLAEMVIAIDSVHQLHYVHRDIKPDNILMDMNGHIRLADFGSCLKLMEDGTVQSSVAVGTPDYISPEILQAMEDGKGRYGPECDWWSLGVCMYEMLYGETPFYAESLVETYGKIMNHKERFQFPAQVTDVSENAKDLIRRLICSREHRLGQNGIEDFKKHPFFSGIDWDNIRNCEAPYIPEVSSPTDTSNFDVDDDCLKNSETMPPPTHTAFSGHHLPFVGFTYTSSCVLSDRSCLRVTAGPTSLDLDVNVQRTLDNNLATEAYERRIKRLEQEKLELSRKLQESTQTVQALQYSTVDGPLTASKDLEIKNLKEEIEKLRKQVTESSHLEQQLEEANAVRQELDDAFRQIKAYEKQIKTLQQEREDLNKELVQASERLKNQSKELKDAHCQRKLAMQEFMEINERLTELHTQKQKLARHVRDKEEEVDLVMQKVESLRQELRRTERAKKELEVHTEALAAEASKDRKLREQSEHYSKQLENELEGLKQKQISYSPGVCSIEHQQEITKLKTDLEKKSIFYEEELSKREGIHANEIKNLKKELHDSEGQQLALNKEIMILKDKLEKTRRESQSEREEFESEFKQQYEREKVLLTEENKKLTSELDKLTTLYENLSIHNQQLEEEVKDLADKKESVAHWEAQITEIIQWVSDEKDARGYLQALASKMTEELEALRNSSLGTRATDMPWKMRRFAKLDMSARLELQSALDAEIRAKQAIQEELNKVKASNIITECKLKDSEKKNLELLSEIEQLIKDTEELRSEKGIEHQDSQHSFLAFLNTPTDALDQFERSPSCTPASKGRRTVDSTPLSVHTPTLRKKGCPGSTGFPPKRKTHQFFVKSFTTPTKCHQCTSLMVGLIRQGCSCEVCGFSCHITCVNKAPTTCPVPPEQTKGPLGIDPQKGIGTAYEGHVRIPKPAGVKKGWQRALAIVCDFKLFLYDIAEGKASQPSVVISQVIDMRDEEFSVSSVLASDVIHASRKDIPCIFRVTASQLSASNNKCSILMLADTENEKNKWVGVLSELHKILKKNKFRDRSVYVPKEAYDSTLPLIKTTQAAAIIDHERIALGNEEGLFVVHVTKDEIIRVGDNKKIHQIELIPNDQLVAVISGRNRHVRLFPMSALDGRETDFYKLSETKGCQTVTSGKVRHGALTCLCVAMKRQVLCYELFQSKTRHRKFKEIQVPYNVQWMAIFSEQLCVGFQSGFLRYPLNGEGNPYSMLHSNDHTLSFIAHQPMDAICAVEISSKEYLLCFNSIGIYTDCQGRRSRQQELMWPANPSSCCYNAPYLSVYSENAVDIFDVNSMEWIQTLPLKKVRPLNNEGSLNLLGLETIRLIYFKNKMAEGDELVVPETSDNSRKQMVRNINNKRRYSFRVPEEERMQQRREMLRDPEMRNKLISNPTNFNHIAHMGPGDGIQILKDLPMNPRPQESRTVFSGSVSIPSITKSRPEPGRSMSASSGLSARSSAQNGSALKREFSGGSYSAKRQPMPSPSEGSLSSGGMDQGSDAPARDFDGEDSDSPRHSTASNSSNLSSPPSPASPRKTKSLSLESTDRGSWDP
Chain of Phosphatidylinositol 4-phosphate 3-kinase C2 domain-containing subunit beta (Homo sapiens) (O00750 whole entry, the tested form may be a part): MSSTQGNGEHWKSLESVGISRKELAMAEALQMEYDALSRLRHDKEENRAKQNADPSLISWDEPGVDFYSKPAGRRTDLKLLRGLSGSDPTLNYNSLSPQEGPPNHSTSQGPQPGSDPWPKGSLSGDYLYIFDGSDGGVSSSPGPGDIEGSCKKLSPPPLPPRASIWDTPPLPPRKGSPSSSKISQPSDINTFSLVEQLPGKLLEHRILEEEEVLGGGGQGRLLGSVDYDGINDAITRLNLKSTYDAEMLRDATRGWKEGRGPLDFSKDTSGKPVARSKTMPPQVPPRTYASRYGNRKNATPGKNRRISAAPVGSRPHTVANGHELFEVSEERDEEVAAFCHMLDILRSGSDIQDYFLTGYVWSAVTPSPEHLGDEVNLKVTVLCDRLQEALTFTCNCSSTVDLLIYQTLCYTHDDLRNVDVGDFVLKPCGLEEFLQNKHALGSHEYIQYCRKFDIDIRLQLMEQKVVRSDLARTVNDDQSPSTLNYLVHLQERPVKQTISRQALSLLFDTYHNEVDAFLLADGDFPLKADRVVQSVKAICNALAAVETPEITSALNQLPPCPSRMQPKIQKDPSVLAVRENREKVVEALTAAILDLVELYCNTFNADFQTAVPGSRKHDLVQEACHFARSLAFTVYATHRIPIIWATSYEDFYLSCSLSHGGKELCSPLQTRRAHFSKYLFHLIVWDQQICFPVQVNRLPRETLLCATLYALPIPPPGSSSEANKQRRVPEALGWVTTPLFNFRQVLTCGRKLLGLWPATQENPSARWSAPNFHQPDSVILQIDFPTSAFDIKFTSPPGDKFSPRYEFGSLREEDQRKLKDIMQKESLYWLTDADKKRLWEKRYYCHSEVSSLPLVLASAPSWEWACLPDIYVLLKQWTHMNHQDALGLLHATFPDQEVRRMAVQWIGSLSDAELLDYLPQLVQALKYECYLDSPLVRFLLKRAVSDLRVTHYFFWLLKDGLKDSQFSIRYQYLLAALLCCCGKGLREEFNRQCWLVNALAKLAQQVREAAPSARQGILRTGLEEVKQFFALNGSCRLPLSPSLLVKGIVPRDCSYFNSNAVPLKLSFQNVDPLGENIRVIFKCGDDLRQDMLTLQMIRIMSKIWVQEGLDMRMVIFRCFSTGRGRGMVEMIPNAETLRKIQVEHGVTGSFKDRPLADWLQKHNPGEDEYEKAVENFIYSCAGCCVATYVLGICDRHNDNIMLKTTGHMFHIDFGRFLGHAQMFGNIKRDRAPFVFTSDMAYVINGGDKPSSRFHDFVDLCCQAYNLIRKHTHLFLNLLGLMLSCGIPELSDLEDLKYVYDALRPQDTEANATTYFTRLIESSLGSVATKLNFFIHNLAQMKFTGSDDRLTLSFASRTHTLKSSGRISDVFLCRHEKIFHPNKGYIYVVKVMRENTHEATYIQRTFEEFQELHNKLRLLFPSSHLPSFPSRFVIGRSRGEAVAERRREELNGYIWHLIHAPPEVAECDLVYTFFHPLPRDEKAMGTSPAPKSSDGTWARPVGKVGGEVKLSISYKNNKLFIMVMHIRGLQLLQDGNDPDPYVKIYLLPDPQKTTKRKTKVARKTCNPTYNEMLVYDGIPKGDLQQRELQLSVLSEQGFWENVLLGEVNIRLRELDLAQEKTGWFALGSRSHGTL
Chain of Serine/threonine-protein kinase TAO3 (Homo sapiens) (Q9H2K8 whole entry): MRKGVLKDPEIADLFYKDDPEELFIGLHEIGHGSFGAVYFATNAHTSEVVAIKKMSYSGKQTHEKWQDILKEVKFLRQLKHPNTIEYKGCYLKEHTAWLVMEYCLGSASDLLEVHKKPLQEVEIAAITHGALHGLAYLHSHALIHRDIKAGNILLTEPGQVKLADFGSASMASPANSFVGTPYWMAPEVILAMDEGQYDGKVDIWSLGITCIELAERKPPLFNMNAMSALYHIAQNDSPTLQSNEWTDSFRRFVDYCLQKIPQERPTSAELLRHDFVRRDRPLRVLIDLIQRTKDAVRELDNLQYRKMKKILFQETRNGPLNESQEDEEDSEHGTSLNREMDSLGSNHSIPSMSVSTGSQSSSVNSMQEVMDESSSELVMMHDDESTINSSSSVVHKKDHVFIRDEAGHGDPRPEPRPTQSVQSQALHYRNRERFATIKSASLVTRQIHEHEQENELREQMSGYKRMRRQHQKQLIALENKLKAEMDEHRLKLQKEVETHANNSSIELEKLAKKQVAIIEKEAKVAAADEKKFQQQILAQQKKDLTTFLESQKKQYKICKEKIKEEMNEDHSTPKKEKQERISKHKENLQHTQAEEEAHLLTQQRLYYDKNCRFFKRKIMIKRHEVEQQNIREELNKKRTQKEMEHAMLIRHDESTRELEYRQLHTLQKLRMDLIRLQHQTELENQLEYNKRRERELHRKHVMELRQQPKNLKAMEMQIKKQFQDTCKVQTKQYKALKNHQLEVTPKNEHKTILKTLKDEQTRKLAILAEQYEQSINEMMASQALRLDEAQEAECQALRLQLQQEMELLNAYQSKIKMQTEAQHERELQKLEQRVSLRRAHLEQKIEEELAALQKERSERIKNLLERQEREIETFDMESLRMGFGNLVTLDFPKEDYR

## CCC(=O)N[C@@H]1CC[C@H](C(=O)N(C)c2ccc(-c3nc4ccccc4o3)cc2)C1 [BI 99990]
[1]
  residual activity: 60%
[2]
  residual activity: 100%
[3]
  residual activity: 87%
[4]
  residual activity: 100%
[5]
  residual activity: 100%
Rattus norvegicus
  inhibition: 5.21%
[6]
  residual activity: 100%
[7]
  residual activity: 100%
[8]
  residual activity: 78%
[9]
  residual activity: 100%
[10]
  residual activity: 95%
[11]
  residual activity: 100%
[12]
  residual activity: 100%
[13]
  residual activity: 100%
[14]
  residual activity: 100%
[15]
  residual activity: 100%
[16]
  residual activity: 84%
[17]
  inhibition: -6.47%
[18]
  residual activity: 98%
[19]
  residual activity: 73%
[20]
  residual activity: 70%
[21]
  residual activity: 46%
[22]
  residual activity: 100%
[23]
  residual activity: 100%
[24]
  residual activity: 86%
[25]
  residual activity: 100%
[26]
  residual activity: 100%
[27]
  inhibition: 4.36%
[28]
  inhibition: 7.05%
[29]
  residual activity: 88%
[30]
  residual activity: 100%
[31]
  residual activity: 100%
[32]
  residual activity: 79%
[33]
  residual activity: 100%
[34]
  residual activity: 100%
[35]
  residual activity: 100%
[36]
  inhibition: 15.4%
[37]
  residual activity: 100%

## CCC(=O)N[C@H]1CC[C@@H](C(=O)N(C)c2ccc(-c3nc4ccccc4o3)cc2)C1 [BI 99179]
[1]
  residual activity: 52%
[2]
  residual activity: 98%
[3]
  residual activity: 70%
[4]
  residual activity: 90%
[5]
  residual activity: 100%
Rattus norvegicus
  inhibition: 3.17%
[6]
  residual activity: 77%
[7]
  residual activity: 91%
[8]
  residual activity: 89%
[9]
  residual activity: 97%
[10]
  residual activity: 80%
[11]
  residual activity: 100%
[12]
  residual activity: 80%
[13]
  residual activity: 73%
[14]
  residual activity: 84%
[15]
  residual activity: 92%
[16]
  residual activity: 77%
[17]
  inhibition: -6.32%
[18]
  residual activity: 100%
[19]
  residual activity: 100%
[20]
  residual activity: 93%
[21]
  residual activity: 100%
[22]
  residual activity: 87%
[23]
  residual activity: 98%
[24]
  residual activity: 100%
[25]
  residual activity: 98%
[26]
  residual activity: 100%
[27]
  inhibition: 12.1%
[28]
  inhibition: 5.31%
[29]
  residual activity: 94%
[30]
  residual activity: 99%
[31]
  residual activity: 92%
[32]
  residual activity: 85%
[33]
  residual activity: 100%
[34]
  residual activity: 100%
[35]
  residual activity: 100%
[36]
  inhibition: -0.421%
[37]
  residual activity: 89%
